Values after ≈ are worked out from the molar mass of the structure shown.
What was measured:
CYP24A1 mRNA = assay: Induction of CYP24A1 transcription in cryopreserved isolated intestinal mucosa (RT-PCR); assay type: cell-based, human; details: 24-hr treatment, dose dependent
Description: Gene transcription in the intestinal mucosa was quantified based on reverse transcription-real time PCR (RT-PCR) using the 7500 Fast Real-Time PCR system (Applied Biosystems, Foster City, Calif.). Total RNA was extracted using the mini RNeasy kit (QIAGEN, www.qiagen.com) according to instructions provided by the manufacturer for isolation of total RNA from the intestinal mucosa. At first, reverse transcription (RT) was performed with approximately 200 ng of isolated RNA using the High Capacity cDNA Reverse Transcription Kit (Thermo Fisher Scientific Inc., www.thermofisher.com). Subsequently, quantitative PCR analysis was performed on RT reactions using gene specific primer/probe sets and the Taqman Fast Universal PCR Master Mix (Thermo Fisher). The relative quantity of the target gene was compared with that of the reference transcription of […] (GAPDH) as determined by the […] and as previously described (Fahmi, Kish et al. 2010).
P450 induction in cryopreserved metabolically competent isolated intestinal mucosa was evaluated based on gene transcription. Following a 24-hr treatment period, dose dependent induction of CYP3A4 mRNA by rifampin and 25-hydroxyD3; and, CYP24A1 mRNA by 25-hydroxyD3 were observed. For CYP3A4, the maximal fold of induction was approximately 3-fold for both inducers. Data shown for 25-hydroxyD3 in FIG. 10C.

in vitro = details: human, IC50 (cytotoxicity)
Description: (§1) The cryopreserved vials of the isolated intestinal mucosa comprising villi were removed from liquid nitrogen storage and thawed in a 37° C. water bath for approximately 2 min. The contents of each individual vial were decanted into a 50 ml conical tube containing Cryopreserved Enterocyte Recovery Medium, (In Vitro ADMET Laboratories, Columbia, Md.) that was pre-warmed in a 37° C. water bath. The thawed in vitro reagent was recovered by centrifugation at 100×g for 10 min at room temperature. After centrifugation, the supernatant was removed by decanting. A volume of 5 mL of 4° C. Hepatocyte/Enterocyte Incubation Medium, (In Vitro ADMET Laboratories, Columbia, Md.) was added to the intact pellet of enterocytes at the bottom of the conical tube followed by briskly re-pipetting 5 times with a P1000 micropipet to create an even suspension of the intestinal mucosal fragments.
(§2) In vitro cytotoxicity evaluation with cryopreserved intestinal mucosa was performed in 96-well plates. After recovery from cryopreservation as described above, the CHIM pellet was resuspended in 5 mL of Hepatocyte Incubation Medium (IVAL, Columbia, Md.). […] The cryopreserved intestinal mucosa cultures were then incubated in a CO2 cell culture incubator kept at 37° C. in a highly humidified atmosphere of 5% CO2. After an incubation duration of 24 hrs., cell viability was determined based on cellular ATP contents as previously described.
(§3) Data are presented as mean and standard deviation of triplicate incubations derived using the Microsoft Excel 6.0 software. Statistical analysis was performed using student's t-test with the Microsoft Excel 6.0 software, with the probability of p<0.05 to be considered statistically significant. Specific activity (pmol/min/mg protein) of each drug metabolizing enzyme pathway was determined by dividing the total metabolite formed by the incubation time and normalized to protein contents.

[1] = test system: cryopreserved intestinal mucosa isolated from human duodenum, jejunum, and ileum; assay: in vitro; details: for IC50: Homo sapiens, read-out: IC50 (viability by cellular ATP contents), range over regions, duodenum, jejunum, and ileum of Donor 1
Description: as §1, §2, §3

[2] = test system: cryopreserved human intestinal mucosa; assay: Drug-induced enterotoxicity in cryopreserved human intestinal mucosa, viability by cellular ATP contents (Example 6); details: duodenum, jejunum and ileum, three donors, FIGS. 6 and 7
Description: A vial of cryopreserved intestinal mucosa was thawed in a 37 C deg. water bath and added to 50 mL of culture medium (Universal Cryopreservation Plating Medium, In Vitro ADMET Laboratories, Columbia, Md.). The recovered mucosa pellet was suspended in a protein free incubation medium (Hepatocyte Enterocyte Incubation Medium, In Vitro ADMET Laboratories, Columbia, Md.). […] The plate was incubated at 37 deg. C. for 24 hrs after which cell viability was determined by the quantification of cellular ATP contents (ATPLite, Perkin Elmers).

Compound	induction of CYP24A1 transcription (mRNA) (CYP24A1 mRNA)	induction of CYP24A1 transcription (mRNA) (CYP24A1 mRNA; listed as 25-hydroxyD3)	induction of CYP24A1 transcription (mRNA) (CYP24A1 mRNA; listed as vitamin D3)	IC50 at 24 h (in vitro) [µg/mL]	cytotoxicity in cryopreserved intestinal mucosa (in words) [1]	IC50 [1] [µg/mL]	IC50 at 24 h (in vitro; Duodenum mucosa, 24 hrs, cellular ATP contents) [µg/mL]	IC50 at 24 h (in vitro; Ileum mucosa, 24 hrs, cellular ATP contents) [µg/mL]	IC50 at 24 h (in vitro; Jejunum mucosa, 24 hrs, cellular ATP contents) [µg/mL]	cytotoxicity in cryopreserved intestinal mucosa (in words) ([1]; three donors, 24 hrs)	viability in isolated intestinal mucosa (in words) [2]
C=C1/C(=C\C=C2/CCC[C@]3(C)[C@@H]([C@H](C)CCCC(C)(C)O)CC[C@@H]23)C[C@@H](O)C[C@@H]1O [1,25(OH)D3, 1,25-dihydroxyvitamin D3]	approximately 300 fold	Approximately 300 fold	approx. 300 fold								
CC(=O)Nc1ccc(O)cc1 [APAP, acetaminophen]				2250 (≈ 14900 µM)	Dose-dependent cytotoxicity	920 to 1180 (≈ 6090 to 7810 µM)					
COc1ccc2cc([C@H](C)C(=O)O)ccc2c1 [Naproxen, naproxen]						350 to 390 (≈ 1520 to 1690 µM)	350 (≈ 1520 µM)	360 (≈ 1560 µM)	390 (≈ 1690 µM)	Dose-dependent cytotoxicity	dose-dependent decrease in viability

— patent US20190293634A1, “ISOLATED INTESTINAL MUCOSA AND USES THEREOF” (priority 2018, published 2019)
